ChEMBL document CHEMBL1132127, “Thrombin inhibitors based on [5,5] trans-fused indane lactams” (Bioorg Med Chem Lett, 1999)

Tests used:
[1] = biological target: Prothrombin (Homo sapiens, UniProt P00734)
[2] = biological target: Coagulation factor X (Homo sapiens, UniProt P00742)
Description: Inhibition of activated Coagulation factor X

[3] = biological target: Serine protease 1 (Homo sapiens, UniProt P07477)
[4] = Half life time in human plasma; type: ADME, cell-free

Coagulation factor X, sequence (P00742 41-179 limits assumed): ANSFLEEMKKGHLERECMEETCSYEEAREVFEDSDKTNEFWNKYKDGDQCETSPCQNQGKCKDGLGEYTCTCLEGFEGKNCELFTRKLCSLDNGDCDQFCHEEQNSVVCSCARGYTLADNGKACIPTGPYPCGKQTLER
Coagulation factor X, sequence (P00742 235-488 limits assumed): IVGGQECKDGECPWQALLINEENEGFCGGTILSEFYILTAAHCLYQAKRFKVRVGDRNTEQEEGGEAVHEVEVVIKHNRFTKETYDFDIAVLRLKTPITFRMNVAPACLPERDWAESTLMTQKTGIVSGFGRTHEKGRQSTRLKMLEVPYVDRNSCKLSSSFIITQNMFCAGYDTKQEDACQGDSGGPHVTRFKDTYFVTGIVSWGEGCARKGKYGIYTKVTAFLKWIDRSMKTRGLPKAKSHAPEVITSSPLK
Serine protease 1, sequence (P07477 whole entry): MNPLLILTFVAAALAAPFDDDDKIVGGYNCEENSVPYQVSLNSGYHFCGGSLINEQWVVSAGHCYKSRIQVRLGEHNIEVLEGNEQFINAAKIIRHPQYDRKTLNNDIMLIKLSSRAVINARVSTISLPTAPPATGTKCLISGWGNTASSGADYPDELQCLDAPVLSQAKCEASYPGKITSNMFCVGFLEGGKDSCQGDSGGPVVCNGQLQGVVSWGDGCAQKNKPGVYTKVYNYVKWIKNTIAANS

Compound | IC50 [1] | IC50 [2] | IC50 [3] | half-life [4]
COC(=O)CN1C(=O)[C@H](CCCCC(=N)N)[C@H]2c3ccccc3C[C@@H]21 | 43 µM | > 200 µM | > 200 µM | –
CCN(CC)C(=O)c1cccc(-c2ccc3c(c2)[C@@H]2[C@@H](CCCCC(=N)N)C(=O)N(C(=O)OC)[C@H]2C3)c1 | 0.05 µM | 2.2 µM | 2.2 µM | 17 h
CCN(CC)C(=O)c1cccc(-c2ccc3c(c2)[C@@H]2[C@@H](CCCCC(=N)N)C(=O)N(CCCCCc4ccccc4)[C@H]2C3)c1 | 5 µM | > 50 µM | > 50 µM | –
CCN(CC)C(=O)c1cccc(-c2ccc3c(c2)[C@@H]2[C@@H](CCCCC(=N)N)C(=O)N(S(=O)(=O)c4ccccc4)[C@H]2C3)c1 | 0.016 µM | 0.074 µM | 0.066 µM | –
CC(=O)O[C@@H]1CC[C@]2(C)C3CC[C@@]4(C)[C@H]5[C@@H](C[C@]4(C)C3=CCC2[C@]1(C)C(=O)O)OC(=O)[C@@H]5CC(=O)C=C(C)C (stereo partly drawn) | 4 µM | – | – | –
CCN(CC)C(=O)c1cccc(-c2ccc3c(c2)C[C@H]2[C@H]3[C@@H](CCCCC(=N)N)C(=O)N2C(=O)OCCCc2ccccc2)c1 | 0.66 µM | 3.6 µM | 0.62 µM | –
CCN(CC)C(=O)c1cccc(-c2ccc3c(c2)C[C@H]2[C@H]3[C@@H](CCCCC(=N)N)C(=O)N2CCCCCc2ccccc2)c1 | 5 µM | 26 µM | 8.4 µM | –
CCNC(=O)N1C(=O)[C@H](CCCCC(=N)N)[C@H]2c3cc(-c4cccc(C(=O)N(CC)CC)c4)ccc3C[C@@H]21 | 3 µM | > 100 µM | > 100 µM | –
CCOP(=O)(OCC)N1C(=O)[C@H](CCCCC(=N)N)[C@H]2c3ccc(-c4cccc(C(=O)N(CC)CC)c4)cc3C[C@@H]21 | 3.2 µM | 20 µM | 1.7 µM | –
N=C(N)CCCC[C@H]1C(=O)N[C@H]2Cc3ccccc3[C@@H]21 | > 200 µM | > 200 µM | > 200 µM | > 24 h
CCN(CC)C(=O)c1cccc(-c2ccc3c(c2)C[C@H]2[C@H]3[C@@H](CCCCC(=N)N)C(=O)N2C(=O)OC)c1 | 0.016 µM | 0.12 µM | – | 24 h
N=C(N)CCCC[C@H]1C(=O)N(CCCCCc2ccccc2)[C@H]2Cc3ccccc3[C@H]12 | 13 µM | > 100 µM | 9.7 µM | –
CCN(CC)C(=O)c1cccc(-c2ccc3c(c2)[C@@H]2[C@@H](CCCCC(=N)N)C(=O)N(COC(C)=O)[C@H]2C3)c1 | 12 µM | 14 µM | 36 µM | –
CCC(=O)N1C(=O)[C@H](CCCCC(=N)N)[C@H]2c3cc(-c4cccc(C(=O)N(CC)CC)c4)ccc3C[C@@H]21 | 0.38 µM | 9.9 µM | 8.3 µM | –
CCN(CC)C(=O)c1cccc(-c2ccc3c(c2)[C@@H]2[C@@H](CCCCC(=N)N)C(=O)N(C(=O)OCCCc4ccccc4)[C@H]2C3)c1 | 0.13 µM | 3.7 µM | 2.3 µM | –
CCN(CC)C(=O)c1cccc(-c2ccc3c(c2)[C@@H]2[C@@H](CCCCC(=N)N)C(=O)N(C(=O)N(C)C)[C@H]2C3)c1 | 11 µM | > 20 µM | > 20 µM | –
